According to PMC6675120, “Potent and selective inhibitors for M32 metallocarboxypeptidases identified from high-throughput screening of anti-kinetoplastid chemical boxes” (PLoS Neglected Tropical Diseases, 2019):
pIC50: −log10 of the molar value.

Key:
TbMCP-1 = TbMCP-1 (Trypanosoma brucei, UniProt Q386R0); test: Continuous fluorogenic (FRET) TbMCP-1 assay with Abz-RFFK(Dnp)-OH, primary and secondary screening; type: biochemical; conditions: for TbMCP-1 2º/1º ratio: secondary (31,5 µM) / primary (25 µM) inhibition; for TbMCP-1 Primary screening Inhibition (%): single inhibitor concentration 25 µM; for TbMCP-1 Secondary screening Inhibition (%): single inhibitor concentration 31,5 µM; for TbMCP-1 Hill Slope: four-parameter Hill fit of dose-response curve
Method: (§1) TcMCP-1 (MEROPS ID: M32.003) and TbMCP-1 were expressed as GST fusion proteins in E. coli BL21 (DE3) Codon Plus and purified as previously described.
(§2) TbMCP-1 and TcMCP-1 activities were assayed fluorometrically with Abz-RFFK(Dnp)-OH and Abz-LKFK(Dnp)-OH substrates, respectively, in 100 mM MOPS pH 7,2 containing 0,01% Triton X-100. Assays were performed in solid black 384-well plates (final reaction volume ~80 μL) and the hydrolysis of the K(Dnp)-OH group was monitored continuously at 30 °C with a Beckman Coulter DTX 880 Multimode Reader (Radnor, Pennsylvania, USA) using standard 320 nm excitation and 420 nm emission filter set.
(§3) In all cases, EDTA (final concentration 31,25 mM) was used as positive inhibition control.
(§4) Then, 40 μL of 100 mM MOPS, 0,01% Triton X-100 pH 7,2 containing TbMCP-1 (2,50 nM) or TcMCP-1 (0,34 nM) were added to each well, plates were homogenized (30 seg, orbital, medium intensity) and each well subjected to a single autofluorescence read (ex/em = 320/420 nm). Plates were incubated in darkness for 15 min at 30 °C and then 40 μL of Abz-RFFK(Dnp)-OH (4 μM) or Abz-LKFK(Dnp)-OH (0,8 μM) in assay buffer were added to each well to start the reaction. After homogenization (30 seg, orbital, medium intensity), the fluorescence of the Abz group (ortho-aminobenzoic acid) (ex/em = 320/420 nm) was acquired kinetically for each well (8 read cycles, one cycle every 300 seconds). Considering our previous experiences, the auto-fluorescent cut-off was arbitrarily set at 2x10^5 RFU to discard highly interfering compounds. All compounds were assayed in singlet (without replicates) due to the limited availability of stocks.
(§5) Raw screening measurements were used to determine the slope (dF/dt) of progression curves by linear regression for control and non-interfering compound wells. In the case of control-dependent hit selection criteria, percent inhibition percentage (%Inh) was calculated for each compound according to the following equation: Inh=100∙[1−(dF/dt^WELL−μ^C−)/(μ^C+−μ^C−)] (1) where dF/dt^WELL represents the slope of each compound well and μ^C+ and μ^C− the average of MCP (no-inhibition) and substrate (no-enzyme) controls, respectively.
(§6) To avoid any positional and/or association bias, we randomly defined the row position for each compound. One μL of compounds stock (10 mM in DMSO) and EDTA (31,25 mM) were added to the first well of column 1, followed by addition of 40 μL of 100 mM MOPS, 0,01% Triton X-100 pH 7,2 buffer. After addition of 20 μL of the same buffer to subsequent wells of the plate, 22 serial 2-fold dilutions were made horizontally. The last two positions of every row were used, alternatively, for C^+ and C^− controls to reduce any positional and/or association bias. Then, 20 μL of activity buffer containing TbMCP-1 or TcMCP-1 were added to each well, except for those corresponding to C^−; completed with 20 μL of activity buffer. After homogenization, 15 minutes of incubation at 30°C and autofluorescence measurement, the substrate (in activity buffer) was added to the previous mix. Data collection and processing were performed exactly as described above. Percentage of M32 MCPs residual activity was calculated for each condition according to the following equation: %Res.Act^MCP=100∙[(dF/dt^WELL−μ^C−)/(μ^C+−μ^C−)] (2) where dF/dt^WELL represents the slope of each compound well and μ^C+ and μ^C− the average of MCP (no-inhibition) and substrate (no-enzyme) controls, respectively.

TcMCP-1 = TcMCP-1 (Trypanosoma cruzi, UniProt Q6ZXC0); test: Continuous fluorogenic (FRET) TcMCP-1 assay with Abz-LKFK(Dnp)-OH, primary and secondary screening; type: biochemical; conditions: for TcMCP-1 Hill Slope: four-parameter Hill fit of dose-response curve; for TcMCP-1 2º/1º ratio: secondary (31,5 µM) / primary (25 µM) inhibition; for TcMCP-1 Primary screening Inhibition (%): single inhibitor concentration 25 µM; for TcMCP-1 Secondary screening Inhibition (%): single inhibitor concentration 31,5 µM
Method: as §1, §2, §3, §4, §5
as §6, with “Compounds selected from primary screening were re-tested in a dose-response manner (final concentration ranging from […] to 62,5 μM) using identical assay conditions. To” for “To”

Sequence of TcMCP-1 (Q6ZXC0 entry or part of it): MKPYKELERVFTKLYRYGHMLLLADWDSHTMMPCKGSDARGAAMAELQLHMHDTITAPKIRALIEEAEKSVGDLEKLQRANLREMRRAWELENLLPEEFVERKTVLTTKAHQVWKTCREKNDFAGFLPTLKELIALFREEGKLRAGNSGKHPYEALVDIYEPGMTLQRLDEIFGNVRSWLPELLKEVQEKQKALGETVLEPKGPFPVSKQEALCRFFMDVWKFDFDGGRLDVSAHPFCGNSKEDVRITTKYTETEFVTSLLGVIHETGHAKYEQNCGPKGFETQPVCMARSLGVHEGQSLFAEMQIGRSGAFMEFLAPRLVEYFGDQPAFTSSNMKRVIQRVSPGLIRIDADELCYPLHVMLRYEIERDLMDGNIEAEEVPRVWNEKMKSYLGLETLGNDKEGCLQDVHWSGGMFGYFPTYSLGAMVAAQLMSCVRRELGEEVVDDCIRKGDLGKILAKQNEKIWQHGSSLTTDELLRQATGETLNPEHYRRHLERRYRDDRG
Sequence of TbMCP-1 (Q386R0 entry or part of it): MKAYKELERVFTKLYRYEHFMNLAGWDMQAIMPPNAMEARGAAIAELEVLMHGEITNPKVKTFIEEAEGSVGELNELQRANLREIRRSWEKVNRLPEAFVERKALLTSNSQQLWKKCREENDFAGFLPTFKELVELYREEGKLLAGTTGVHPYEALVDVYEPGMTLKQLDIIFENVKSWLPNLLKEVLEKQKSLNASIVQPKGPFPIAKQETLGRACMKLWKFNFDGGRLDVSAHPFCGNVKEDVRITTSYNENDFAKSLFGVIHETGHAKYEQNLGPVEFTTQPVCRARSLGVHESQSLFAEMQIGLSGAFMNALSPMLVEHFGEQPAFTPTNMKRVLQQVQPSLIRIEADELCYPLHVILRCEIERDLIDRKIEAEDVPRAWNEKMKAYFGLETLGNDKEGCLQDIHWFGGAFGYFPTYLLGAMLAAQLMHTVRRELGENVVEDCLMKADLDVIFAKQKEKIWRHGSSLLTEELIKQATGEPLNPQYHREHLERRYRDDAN

| Compound | TbMCP-1 2º/1º ratio (TbMCP-1) | TbMCP-1 Primary screening Inhibition (%) (TbMCP-1) | TbMCP-1 Secondary screening Inhibition (%) (TbMCP-1) | pIC50 (TcMCP-1) | TcMCP-1 Hill Slope (TcMCP-1) | TcMCP-1 2º/1º ratio (TcMCP-1) | TcMCP-1 Primary screening Inhibition (%) (TcMCP-1) | TcMCP-1 Secondary screening Inhibition (%) (TcMCP-1) | pIC50 (TbMCP-1) | TbMCP-1 Hill Slope (TbMCP-1) |
| --- | --- | --- | --- | --- | --- | --- | --- | --- | --- | --- |
| O=C(NCC1CCCCC1)c1cc(=O)c2ccccc2o1 [TCMDC-123621] | -0,05 | 44,99% | -2,11% |  |  |  |  |  |  |  |
| CC(C)N(C(=O)CN1C(=O)C(N)C(=O)N(c2ccccc2)c2ccccc21)c1ccccc1 (stereo not shown) [TCMDC-143071] |  |  |  | 4.41 | -1,235 | 0,63 | 45,44% | 28,65% |  |  |
| COc1cccc(-c2cc(C(F)(F)F)nc(-n3ccc([N+](=O)[O-])n3)n2)c1 [TCMDC-143105] |  |  |  |  |  | 0,34 | 52,36% | 17,76% |  |  |
| N#Cc1cc([N+](=O)[O-])ccc1NC1CCCCCC1 [TCMDC-143143] | 1,61 | 41,27% | 66,27% |  |  |  |  |  | 4.66 | -1,466 |
| Cc1c([N+](=O)[O-])c(C(=O)Nc2sc3c(c2C#N)CCC(C)C3)nn1C (stereo not shown) [TCMDC-143155] | 0,23 | 44,57% | 10,36% |  |  |  |  |  |  |  |
| Cl.Cl.O=c1ccc2ccc(F)c3c2n1C[C@H]3CN1CCN(CC(O)c2cc3c(cn2)OCS3)CC1 (stereo partly shown) [TCMDC-143158] | 1,19 | 44,84% | 53,51% |  |  |  |  |  | 4.56 | -1,014 |
| O=C(c1cc2cc(Cl)ccc2[nH]1)N1CCCCC1c1cccnc1 (stereo not shown) [TCMDC-143159] | 0,25 | 52,96% | 13,07% |  |  |  |  |  |  |  |
| CC1=C(C(=O)Nc2ccc(Cl)cc2)C(c2ccncc2)n2ncc(C(=O)Nc3ccccc3)c2N1 (stereo not shown) [TCMDC-143187] | 0,50 | 48,70% | 24,44% |  |  |  |  |  | < 4.22 |  |
| Cc1ccc2c(c1)-c1onc(C(=O)N3CCCCC3c3cccnc3)c1CO2 (stereo not shown) [TCMDC-143191] | 0,78 | 88,97% | 69,40% |  |  |  |  |  | 4.79 | -1,267 |
| Cn1ccnc1CN1CCc2[nH]cnc2C1c1ccccc1OCc1ccccc1 (stereo not shown) [TCMDC-143242] |  |  |  | 4.58 | -1,237 | 1,02 | 51,89% | 52,68% |  |  |
| O=C(N[C@H](CO)c1ccccc1)c1ccc(-c2c[nH]c3nccc(C(F)(F)F)c23)s1 [TCMDC-143254] | 0,78 | 45,94% | 35,87% |  |  |  |  |  | 4.36 | -0,8163 |
| O=C(NNC(=O)c1ccccn1)c1ccc(-c2ccccc2)cc1 [TCMDC-143263] |  |  |  | 4.39 | -0,9946 | 0,31 | 48,44% | 14,84% |  |  |
| CN(C)S(=O)(=O)c1ccc(Cl)c(C(=O)Nc2nc(-c3ccccn3)cs2)c1 [TCMDC-143265] | 0,40 | 59,46% | 23,62% |  |  |  |  |  | 4.35 | -2,036 |
| CCC1Oc2cc(S(=O)(=O)N(C)CC(=O)N3CCc4ccccc4C3)c(C)cc2NC1=O (stereo not shown) [TCMDC-143332] | 1,03 | 55,90% | 57,63% |  |  |  |  |  | 4.63 | -1,063 |
| CC(=O)Nc1cccc(Nc2ncnc3nc[nH]c23)c1 [TCMDC-143399] | 0,19 | 43,27% | 8,15% |  |  |  |  |  |  |  |
| CN(C)c1ccc(-c2cc3nccnc3c(OC[C@H]3CCCNC3)n2)cn1.Cl [TCMDC-143408] |  |  |  | 4.48 | -1,153 | 1,06 | 46,88% | 49,75% |  |  |
| CC(C)Oc1cccc(N2CCC(C(=O)N3CCCN(C(C)C)CC3)CC2)c1.Cl [TCMDC-143432] |  |  |  | 4.58 | -0,6129 | 1,27 | 42,37% | 53,96% |  |  |
| Cc1c(Nc2cc(C3CC3)n[nH]2)ccc(C#N)c1Cl.O=C(O)C(F)(F)F [TCMDC-143454] | 0,63 | 52,66% | 33,23% |  |  |  |  |  | < 4.22 |  |
| CC(Cn1ccnc1)NC(=O)COc1ccc(Cl)c(Cl)c1 (stereo not shown) [TCMDC-143479] |  |  |  |  |  | 0,31 | 42,39% | 13,15% |  |  |
| COc1ccc(S(=O)(=O)Nc2ccc(CN3CCN(C(=O)c4cccc(C#N)c4)CC3)cc2)cc1.O=C(O)C(F)(F)F [TCMDC-143496] |  |  |  | 4.46 | -0,822 | 1,09 | 41,52% | 45,37% |  |  |
| Cc1cc(C#N)c([N+](=O)[O-])cc1Br [TCMDC-143541] | 0,20 | 44,26% | 8,89% |  |  |  |  |  |  |  |
| O=C(O)C(F)(F)F.O=C(O)C(F)(F)F.O=C1COC(c2ccccc2)(c2ccccc2)CN1C1CCN(Cc2ccc(-n3ccnc3)cc2)CC1 [TCMDC-143543] |  |  |  | < 4.22 |  | 0,72 | 43,40% | 31,11% |  |  |
| COc1cccc(S(=O)(=O)Nc2ccc3c(c2)CC(N2CCC(NC(=O)C4CC4)CC2)C3)c1 (stereo not shown) [TCMDC-143583] |  |  |  |  |  | -0,15 | 77,30% | -11,25% |  |  |
| CC(C)Oc1ccc(C(=O)Nc2ccc(N3CCOCC3)c(Cl)c2)cc1 [TCMDC-143592] |  |  |  | 4.55 | -0,8919 | 1,03 | 56,55% | 58,11% |  |  |
| Cl.Cl.O=c1cc(NCCCNCc2cc(C(F)(F)F)cs2)[nH]c2ccccc12 [TCMDC-143645] | 1,27 | 42,78% | 54,13% |  |  |  |  |  | 4.68 | -1,127 |
